This note sets out measurements from patent publication US12325701B2, “YKL-40 inhibitors and their therapeutic” (Molecure S.A., priority 2022, dated 2025).

For experiment [1], the target named is YKL-40 (YKL-40: heparan sulfate interaction) (Homo sapiens (Human), UniProt P36222). Briefly: YKL-40:HS assay, heparan sulfate interference AlphaScreen. Conditions: read-out: YKL-40:HS, IC50/max % inh (max % inh). (Bead proximity is the source of the signal in Alpha formats.)
Procedure: Positive and negative control wells received just 8 uL of MST buffer containing 2% DMSO without inhibitor in the 2nd step (ii). In addition, negative control received just 8 uL of MST buffer containing 0% DMSO without YKL-40-histag in the 3nd step (iii). Finally, the plate luminescence was excited at 680 nm and the emission read at 520-620 nm using the AlphaScreen module in the The Spark™ 1 μM multimode microplate reader (Tecan Trading AG, Mannedorf, Switzerland). Inhibition percentage and IC50 values were determined using GraphPad Prism 7.0 software (GraphPad Software, San Diego, CA, USA).
Experiment [2] has as its target YKL-40 (YKL-40-histag, chitin binding site) (Homo sapiens (Human), UniProt P36222). Briefly: YKL-40:4 assay, competitive chitin binding site AlphaScreen.
The mark [3] stands for this setting: competition with biotinylated compound 4, 20 nM, YKL-40-histag 2.5 nM, read-out: YKL-40:4, IC50/Kd (IC50 range).

Structures are written as SMILES. pIC50: −log10 of the molar value. Counter-ions that a name gives are not always drawn. Like-named read-outs stand apart in the source and are kept apart here.

Sequence of YKL-40 (YKL-40-histag, chitin binding site) (P36222 22-383): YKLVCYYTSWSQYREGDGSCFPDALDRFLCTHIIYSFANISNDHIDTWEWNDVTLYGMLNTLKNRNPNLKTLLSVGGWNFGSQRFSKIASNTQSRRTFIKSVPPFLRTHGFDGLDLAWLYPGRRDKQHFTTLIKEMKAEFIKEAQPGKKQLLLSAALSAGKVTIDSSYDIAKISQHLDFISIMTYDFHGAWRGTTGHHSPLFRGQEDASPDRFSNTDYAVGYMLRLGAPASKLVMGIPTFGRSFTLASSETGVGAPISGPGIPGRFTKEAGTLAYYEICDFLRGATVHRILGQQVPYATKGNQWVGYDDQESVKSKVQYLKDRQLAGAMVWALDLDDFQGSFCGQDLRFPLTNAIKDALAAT
Sequence of YKL-40 (YKL-40: heparan sulfate interaction) (P36222 22-383): as above

For the molecule `CN1C[C@H](Cc2ccc(Cl)cc2)N(C2CCN(c3cc(Cl)ccn3)CC2)C[C@@H]1CN1CCOCC1` [Compound 51, 4-(((2S,5S)-5-(4-chlorobenzyl)-4-(1-(4-chloropyridin-2-yl)piperidin-4-yl)-1-methyl-piperazin-2-yl)methyl)morpholine hydrochloride], the inhibition in experiment [1] stood at 52%.
Take `C[C@H]1CN(C2CCN(c3noc(=O)[nH]3)CC2)[C@@H](Cc2ccc(Cl)cc2)CO1` [Compound 165, 3-(4-((2S,5S)-5-(4-chlorobenzyl)-2-methylmorpholino)piperidin-1-yl)-1,2,4-oxadiazol-5(4H)-one 2,2,2-trifluoroacetate]: the pIC50 in experiment [2] is < 5.00.
Still for that read-out and setting: in the case of `C[C@H]1CN(C2CCN(c3ncc(C(F)(F)F)o3)CC2)[C@@H](Cc2ccc(Cl)cc2)CO1` [Compound 168, (2S,5S)-5-(4-chlorobenzyl)-2-methyl-4-(1-(5-(trifluoromethyl)oxazol-2-yl)piperidin-4-yl)morpholine 2,2,2-trifluoroacetate] it was < 5.00; in that of `C[C@H]1CN(C2CCN(c3ncnc(Cl)n3)CC2)[C@@H](Cc2ccc(Cl)cc2)CO1` [Compound 169, (2S,5S)-4-(1-(4-chloro-1,3,5-triazin-2-yl)piperidin-4-yl)-5-(4-chlorobenzyl)-2-methylmorpholine 2,2,2-trifluoroacetate], < 5.00.
Consider `Cc1nnc(N2CCC(N3C[C@H](C)OC[C@@H]3Cc3ccc(Cl)cc3)CC2)s1` [Compound 182, (2S,5S)-5-(4-chlorobenzyl)-2-methyl-4-(1-(5-methyl-1,3,4-thiadiazol-2-yl)piperidin-4-yl)morpholine 2,2,2-trifluoroacetate], for which the pIC50 in experiment [2] was < 5.00.
Still for that read-out and setting: the result for `C[C@H]1CN(C2CCN(c3nccc(C(=O)O)c3F)CC2)[C@@H](Cc2ccc(Cl)cc2)CO1` [Compound 128, 2-(4-((2S,5S)-5-(4-chlorobenzyl)-2-methylmorpholino)piperidin-1-yl)-3-fluoroisonicotinic acid 2,2,2-trifluoroacetate] reads < 5.00; that for `C[C@H]1CN(C2C[C@H]3CC[C@@H](C2)N3c2cc(Cl)ccn2)[C@@H](Cc2ccc(Cl)cc2)CO1` (stereo partly drawn) [Compound 58, (2S,5S)-5-(4-chlorobenzyl)-4-((1R,5S)-8-(4-chloropyridin-2-yl)-8-azabicyclo[3.2.1]octan-3-yl)-2-methylmorpholine 2,2,2-trifluoroacetate], < 5.00; that for `C[C@H]1CN(C2CCN(c3ccncc3)CC2)[C@@H](Cc2ccc(Cl)cc2)CO1` [Example 28, (2S,5S)-5-(4-chlorobenzyl)-2-methyl-4-(1-(pyridin-4-yl)piperidin-4-yl)morpholine 2,2,2-trifluoroacetate], < 5.00.
Same read-out and setting: in the case of `C[C@H]1CN(C2CCN(c3ccc(C#N)cn3)CC2)[C@@H](Cc2ccc(Cl)cc2)CO1` [Example 19, 6-(4-((2S,5S)-5-(4-chlorobenzyl)-2-methylmorpholino)piperidin-1-yl)nicotinonitrile 2,2,2-trifluoroacetate] it was < 5.00; in that of `C[C@H]1CN(C2CCN(c3c(F)cccc3C#N)CC2)[C@@H](Cc2ccc(Cl)cc2)CO1` [Compound 118, 2-(4-((2S,5S)-5-(4-chlorobenzyl)-2-methylmorpholino)piperidin-1-yl)-3-fluorobenzonitrile 2,2,2-trifluoroacetate], < 5.00; in that of `C[C@H]1CN(C2CCN(c3ncnc(C#N)n3)CC2)[C@@H](Cc2ccc(Cl)cc2)CO1` [Compound 173, 4-(4-((2S,5S)-5-(4-chlorobenzyl)-2-methylmorpholino)piperidin-1-yl)-1,3,5-triazine-2-carbonitrile 2,2,2-trifluoroacetate], < 5.00.
Take `C[C@H]1CN(C2CCN(c3cc(CO)ccn3)CC2)[C@@H](Cc2ccc(Cl)cc2)CO1` [Compound 130, (2-(4-((2S,5S)-5-(4-chlorobenzyl)-2-methylmorpholino)piperidin-1-yl)pyridin-4-yl)methanol 2,2,2-trifluoroacetate]: the pIC50 in experiment [2] is < 5.00.
As for `C[C@H]1CN(C2CCN(c3nncs3)CC2)[C@@H](Cc2ccc(Cl)cc2)CO1` [Compound 181, (2S,5S)-4-(1-(1,3,4-thiadiazol-2-yl)piperidin-4-yl)-5-(4-chlorobenzyl)-2-methylmorpholine 2,2,2-trifluoroacetate], the pIC50 in experiment [2] is < 5.00.
Regarding `C[C@H]1CN(C2CCN(c3c(F)cccc3F)CC2)[C@@H](Cc2ccc(Cl)cc2)CO1` [Compound 123, (2S,5S)-5-(4-chlorobenzyl)-4-(1-(2,6-difluorophenyl)piperidin-4-yl)-2-methylmorpholine 2,2,2-trifluoroacetate], in experiment [2], the pIC50 was < 5.00.
Regarding `C[C@H]1CN(C2CCN(c3ccccc3)CC2)[C@@H](Cc2ccc(Cl)cc2)CO1` [Example 37, (2S,5S)-5-(4-chlorobenzyl)-2-methyl-4-(1-phenylpiperidin-4-yl)morpholine dihydro-chloride], the pIC50 in experiment [2] (setting [3]) is < 5.00.
Regarding `C[C@H]1CN(C2CCN(c3nnn[nH]3)CC2)[C@@H](Cc2ccc(Cl)cc2)CO1` [Compound 166, (2S,5S)-4-(1-(1H-tetrazol-5-yl)piperidin-4-yl)-5-(4-chlorobenzyl)-2-methylmorpholine 2,2,2-trifluoroacetate], the pIC50 in experiment [2] was < 5.00.
On to `O=C1COC[C@H](Cc2ccc(Cl)cc2)N1C1CCN(c2ccccn2)CC1` [Compound 147, (S)-5-(4-chlorobenzyl)-4-(1-(pyridin-2-yl)piperidin-4-yl)morpholin-3-one hydrochloride], for which, in experiment [2] (setting [3]), the pIC50 is < 5.00.
As for `C[C@H]1CN(C2CCN(c3cc(F)ncn3)CC2)[C@@H](Cc2ccc(Cl)cc2)CO1` [Example 24, (2S,5S)-5-(4-chlorobenzyl)-4-(1-(6-fluoropyrimidin-4-yl)piperidin-4-yl)-2-methylmorpholine 2,2,2-trifluoroacetate], in experiment [2], the pIC50 was < 5.00.
As for `CC(C)C1OC[C@H](Cc2ccc(Cl)cc2)N1C1CCN(c2ccccn2)CC1` (stereo partly drawn) [Compound 150, (4S)-4-(4-chlorobenzyl)-2-isopropyl-3-(1-(pyridin-2-yl)piperidin-4-yl)oxazolidine hydrochloride], the pIC50 in experiment [2] (setting [3]) was < 5.00.
As for `C[C@H]1CN(C2CCN(c3ncnc(N(C)C)n3)CC2)[C@@H](Cc2ccc(Cl)cc2)CO1` [Compound 175, 4-(4-((2S,5S)-5-(4-chlorobenzyl)-2-methylmorpholino)piperidin-1-yl)-N,N-dimethyl-1,3,5-triazin-2-amine 2,2,2-trifluoroacetate], the pIC50 in experiment [2] was < 5.00.
`C[C@H]1CN(C2CCN(c3cc(C(=O)O)ccn3)CC2)[C@@H](Cc2ccc(Cl)cc2)CO1` [Compound 125, 2-(4-((2S,5S)-5-(4-chlorobenzyl)-2-methylmorpholino)piperidin-1-yl)isonicotinic acid 2,2,2-trifluoroacetate]: the pIC50 in experiment [2] is < 5.00.
As to `COC(=O)c1ccnc(N2CCC(N3C[C@H](C)OC[C@@H]3Cc3ccc(Cl)cc3)CC2)c1` [Compound 124, methyl 2-(4-((2S,5S)-5-(4-chlorobenzyl)-2-methylmorpholino)piperidin-1-yl)isonicotinate], in experiment [2] (setting [3]), the pIC50 is < 5.00.
`CN1C[C@H](Cc2ccc(Cl)cc2)N(C2CCN(c3cc(Cl)ccn3)CC2)C[C@@H]1COc1ccc2ccccc2c1` [Compound 84, (2S,5R)-2-(4-chlorobenzyl)-1-(1-(4-chloropyridin-2-yl)piperidin-4-yl)-4-methyl-5-((naphthalen-2-yloxy)methyl)piperazine 2,2,2-trifluoroacetate]: the pIC50 in experiment [2] is < 5.00.
Same read-out and setting: in the case of `C[C@H]1CN(C2CCN(c3cc(Cl)ccc3C#N)CC2)[C@@H](Cc2ccc(Cl)cc2)CO1` [Compound 115, 4-chloro-2-(4-((2S,5S)-5-(4-chlorobenzyl)-2-methylmorpholino)piperidin-1-yl)benzonitrile 2,2,2-trifluoroacetate] it was < 5.00; in that of `CC(C)c1nc(N2CCC(N3C[C@H](C)OC[C@@H]3Cc3ccc(Cl)cc3)CC2)no1` [Compound 163, (2S,5S)-5-(4-chlorobenzyl)-4-(1-(5-isopropyl-1,2,4-oxadiazol-3-yl)piperidin-4-yl)-2-methylmorpholine 2,2,2-trifluoroacetate], < 5.00.
On to `C[C@H]1CN(C2CCN(c3cc(C(F)(F)F)ncn3)CC2)[C@@H](Cc2ccc(Cl)cc2)CO1` [Compound 145, (2S,5S)-5-(4-chlorobenzyl)-2-methyl-4-(1-(6-(trifluoromethyl)pyrimidin-4-yl)piperidin-4-yl)morpholine hydrochloride], for which the pIC50 in experiment [2] (setting [3]) was < 5.00.
In the case of `COC(=O)c1ccnc(N2CCC(N3C[C@H](C)OC[C@@H]3Cc3ccc(Cl)cc3)CC2)c1F` [Compound 122, methyl 2-(4-((2S,5S)-5-(4-chlorobenzyl)-2-methylmorpholino)piperidin-1-yl)-3-fluoroisonicotinate], the pIC50 in experiment [2] (setting [3]) was < 5.00.
In the case of `C[C@H]1CN(C2CCN(c3cccc(C#N)n3)CC2)[C@@H](Cc2ccc(Cl)cc2)CO1` [Example 18, 6-(4-((2S,5S)-5-(4-chlorobenzyl)-2-methylmorpholino)piperidin-1-yl)picolinonitrile 2,2,2-trifluoroacetate], the pIC50 in experiment [2] is < 5.00.
For `C[C@H]1CN(C2CCN(c3cccnc3)CC2)[C@@H](Cc2ccc(Cl)cc2)CO1` [Example 27, (2S,5S)-5-(4-chlorobenzyl)-2-methyl-4-(1-(pyridin-3-yl)piperidin-4-yl)morpholine 2,2,2-trifluoroacetate], in experiment [2], the pIC50 was < 5.00.
Consider `COC(=O)c1cccnc1N1CCC(N2C[C@H](C)OC[C@@H]2Cc2ccc(Cl)cc2)CC1` [Compound 117, methyl 2-(4-((2S,5S)-5-(4-chlorobenzyl)-2-methylmorpholino)piperidin-1-yl)nicotinate 2,2,2-trifluoroacetate], for which the pIC50 in experiment [2] was < 5.00.
With `COc1ncnc(N2CCC(N3C[C@H](C)OC[C@@H]3Cc3ccc(Cl)cc3)CC2)n1` [Compound 171, (2S,5S)-5-(4-chlorobenzyl)-4-(1-(4-methoxy-1,3,5-triazin-2-yl)piperidin-4-yl)-2-methylmorpholine 2,2,2-trifluoroacetate], in experiment [2], the pIC50 was < 5.00.
